Laboratory results reported in patent publication US7605156B2, “Methods for the use of inhibitors of cytosolic phospholipase A2” (Wyeth, priority 2001, dated 2009).

Molecular target: T1, cPLA2 (Homo sapiens, UniProt P47712)
T1 sequence (P47712 1-749): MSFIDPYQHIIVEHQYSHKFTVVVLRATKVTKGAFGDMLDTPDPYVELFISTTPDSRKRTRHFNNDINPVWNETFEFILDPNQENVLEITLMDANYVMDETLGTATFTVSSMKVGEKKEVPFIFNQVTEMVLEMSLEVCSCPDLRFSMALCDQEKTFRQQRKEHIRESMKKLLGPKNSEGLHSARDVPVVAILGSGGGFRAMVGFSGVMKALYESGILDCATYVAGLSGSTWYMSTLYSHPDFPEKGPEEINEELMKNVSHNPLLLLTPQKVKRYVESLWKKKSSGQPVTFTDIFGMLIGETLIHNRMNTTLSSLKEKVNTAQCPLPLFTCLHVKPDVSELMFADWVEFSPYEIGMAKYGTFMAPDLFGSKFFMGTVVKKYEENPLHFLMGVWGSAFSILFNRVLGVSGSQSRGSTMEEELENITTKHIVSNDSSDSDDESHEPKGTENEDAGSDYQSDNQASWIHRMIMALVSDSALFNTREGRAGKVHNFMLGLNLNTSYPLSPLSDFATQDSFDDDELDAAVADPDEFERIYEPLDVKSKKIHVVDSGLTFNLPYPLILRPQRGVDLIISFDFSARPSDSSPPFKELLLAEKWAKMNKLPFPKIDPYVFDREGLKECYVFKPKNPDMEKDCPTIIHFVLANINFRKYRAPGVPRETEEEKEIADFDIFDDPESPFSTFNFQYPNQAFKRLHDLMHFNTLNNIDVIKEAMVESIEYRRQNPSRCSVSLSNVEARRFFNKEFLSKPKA
Experiment: Coumarine assay (hydrolysis of 7-hydroxycoumarinyl 6-heptenoate)
Format: biochemical
Conditions: 60 μM 7-hydroxycoumarinyl 6-heptenoate, pH 7.5; read-out: Coumarin IC50
Procedure: Inhibitors were mixed with 200 μL assay buffer (80 mM Heped, pH 7.5, 1 mM EDTA) containing 60 μM 7-hydroxycoumarinyl 6-heptenoate. The reaction was initiated by adding 4 μg cPLA2 in 50 μL assay buffer. Hydrolysis of the 7-hydroxycounarimyl 6-heptenoate ester was monitored in a fluorometer by exciting at 360 nm and monitoring emission at 460 nm. Enzyme activity is proportional to the increase in emission at 460 nm per minute. In the presence of a cPLA2 inhibitor, the rate of increase is less.

Q: Which IC50 does the source give for `O=C(O)c1ccc(CCCc2c(CCNS(=O)(=O)c3cccc(C(F)(F)F)c3)n(C(c3ccccc3)c3ccccc3)c3ccc(Cl)cc23)cc1` [Example 218, 4-(3-{1-Benzhydryl-5-chloro-2-[2-({[3-(trifluoromethyl)phenyl]sulfonyl}amino)ethyl]-1H-indol-3-yl}propyl)benzoic acid] here?
A: 140 nM

Q: With `O=C(O)c1ccc(OCCc2c(CCNS(=O)(=O)c3c(Cl)cc(Cl)cc3Cl)n(C(c3ccccc3)c3ccccc3)c3ccc(Cl)cc23)cc1` [Example 161, 4-{2-[1-benzhydryl-5-chloro-2-(2-{[(2,4,6-trichlorophenyl)sulfonyl]amino}ethyl)-1H-indol-3-yl]ethoxy}benzoic acid] as the molecule, how does the IC50 read?
A: 320 nM

Q: How did the IC50 turn out when `CC1CCCN(CCS(=O)(=O)NCCc2c(CCOc3ccc(C(=O)O)cc3)c3cc(Cl)ccc3n2C(c2ccccc2)c2ccccc2)C1` (stereo not drawn) [Example 246, 4-(2-{I-benzhydryl-5-chloro-2-[2-({[2-(3-methylpiperidin-1-yl)ethyl]sulfonyl}amino)ethyl]-1H-indol-3-yl}ethoxy)benzoic acid] was run?
A: 1200 nM

Q: `CC(CCl)c1ccccc1S(=O)(=O)NCCc1c(CCOc2ccc(C(=O)O)cc2)c2cc(Cl)ccc2n1C(c1ccccc1)c1ccccc1` (stereo not drawn) [Example 278] was tested. Which IC50 did it give?
A: 1900 nM

Q: For `CC(C)C1CCCN1CCS(=O)(=O)NCCc1c(CCOc2ccc(C(=O)O)cc2)c2cc(Cl)ccc2n1C(c1ccccc1)c1ccccc1` (stereo not drawn) [Example 252, 4-(2-{1-benzhydryl-5-chloro-2-[2-({[2-(2-isopropylpyrrolidin-1-yl)ethyl]sulfonyl}amino)ethyl]-1H-indol-3-yl}ethoxy)benzoic acid], which IC50 is on record?
A: 730 nM

Q: Which IC50 does the source give for `CC(=O)N1C(C)CN(CCS(=O)(=O)NCCc2c(CCOc3ccc(C(=O)O)cc3)c3cc(Cl)ccc3n2C(c2ccccc2)c2ccccc2)CC1C` (stereo not drawn) [Example 244, 4-[2-(2-{2-[2-(4-Acetyl-3,5-dimethyl-piperazin-1-yl)-ethanesulfonylamino]-ethyl}-1-benzhydryl-5-chloro-1H-indol-3-yl)-ethoxy]-benzoic acid] here?
A: 1300 nM

Q: `Cc1c(Cl)cccc1S(=O)(=O)NCCc1c(CCOc2ccc(C(=O)O)cc2)c2cc(Cl)ccc2n1C(c1ccccc1)c1ccccc1` [Example 241, 4-{2-[1-benzhydryl-5-chloro-2-(2-{[(3-chloro-2-methylphenyl)sulfonyl]amino}ethyl)-1H-indol-3-yl]ethoxy}benzoic acid] was tested. Which IC50 did it give?
A: 540 nM

Q: Which IC50 does the source give for `Cc1ccccc1S(=O)(=O)NCCc1c(CCOc2ccc(C(=O)O)cc2)c2cc(Cl)ccc2n1C(c1ccccc1)c1ccccc1` [Example 233, 4-{2-[1-benzhydryl-5-chloro-2-(2-{[(2-methylphenyl)sulfonyl]amino}ethyl)-1H-indol-3-yl]ethoxy}benzoic acid] here?
A: 340 nM

Q: With `CSc1ccccc1S(=O)(=O)NCCc1c(CCOc2ccc(C(=O)O)cc2)c2cc(Cl)ccc2n1C(c1ccccc1)c1ccccc1` [Example 239, 4-(2-{1-benzhydryl-5-chloro-2-[2-({[2-(methylthio)phenyl]sulfonyl}amino)ethyl]-1H-indol-3-yl}ethoxy)benzoic acid] as the molecule, how does the IC50 read?
A: 480 nM

Q: `O=C(O)c1ccc(CCCc2c(CCNS(=O)(=O)c3ccccc3OCc3ccccc3)n(C(c3ccccc3)c3ccccc3)c3ccc(Cl)cc23)cc1` [Example 187, 4-(3-{1-Benzhydryl-2-[2-(2-benzyloxy-benzenesulfonylamino)-ethyl]-5-chloro-1H-indol-3-yl}-propyl)benzoic acid] was tested. Which IC50 did it give?
A: 200 nM

Q: `O=S(=O)(NCCc1c(CCOc2ccc(-c3nn[nH]n3)cc2)c2cc(Cl)ccc2n1C(c1ccccc1)c1ccccc1)c1ccccc1Cl` [Example 193, N-[2-(1-benzhydryl-5-chloro-3-{2-[4-(2H-tetrazol-5-yl)-phenoxy]-ethyl}-1H-indol-2-yl)-ethyl]-2-chlorobenzenesulfonamide] was tested. Which IC50 did it give?
A: 1800 nM

Q: `O=C(O)c1ccc(OCCc2c(CCNS(=O)(=O)c3ccc(Cl)cc3Cl)n(C(c3ccccc3)c3ccccc3)c3ccc(Cl)cc23)cc1` [Example 159, 4-{2-[1-benzhydryl-5-chloro-2-(2-{[(2,4-dichlorophenyl)sulfonyl]amino}ethyl)-1H-indol-3-yl]ethoxy}benzoic acid] was tested. Which IC50 did it give?
A: 650 nM

Q: `O=C(O)c1ccc(OCCc2c(CCNS(=O)(=O)c3cccc(-c4ccccc4)c3)n(C(c3ccccc3)c3ccccc3)c3ccc(Cl)cc23)cc1` [Example 207, 4-[2-(1-benzhydryl-2-{2-[(1,1′-biphenyl-3-ylsulfonyl)amino]ethyl}-5-chloro-1H-indol-3-yl)ethoxy]benzoic acid] was tested. Which IC50 did it give?
A: 1400 nM

Q: For `O=C(O)c1ccc(OCCc2c(CCNS(=O)(=O)CSc3ccc(Cl)cc3Cl)n(C(c3ccccc3)c3ccccc3)c3ccc(Cl)cc23)cc1` [Example 287, 4-[2-(1-benzhydryl-5-chloro-2-{2-[([[(2,4-dichlorophenyl)sulfanyl]methyl}sulfonyl)amino]ethyl}-1H-indol-3-yl)ethoxy]benzoic acid], which IC50 is on record?
A: 420 nM

Q: `O=C(O)c1ccc(CCCc2c(CCNS(=O)(=O)c3cccc(OC(F)(F)F)c3)n(C(c3ccccc3)c3ccccc3)c3ccc(Cl)cc23)cc1` [Example 201, 4-(3-{1-Benzhydryl-5-chloro-2-[2-(3-trifluoromethoxy-benzenesulfonylamino)-ethyl]-1H-indol-3-yl}-propyl)-benzoic acid] was tested. Which IC50 did it give?
A: 350 nM

Q: For `O=C(O)c1ccc(OCCc2c(CCNS(=O)(=O)c3ccccc3Cl)n(C(c3ccccc3)c3ccccc3)c3ccc(Cl)cc23)cc1` [Example 255, 4-{2-[1-benzhydryl-5-chloro-2-(2{[(2-chlorophenyl)sulfonyl]amino}ethyl)-1H-indol-3-yl]ethoxy}benzoic acid], which IC50 is on record?
A: 500 nM

Q: With `Cc1c(Cl)cccc1S(=O)(=O)NCCc1c(CCCc2ccc(C(=O)O)cc2)c2cc(Cl)ccc2n1C(c1ccccc1)c1ccccc1` [Example 240, 4-{3-[1-benzhydryl-5-chloro-2(2-{[(3-chloro-2-methylphenyl)sulfonyl]amino}ethyl)-1H-indol-3-yl]propyl}benzoic acid] as the molecule, how does the IC50 read?
A: 320 nM

Q: Which IC50 does the source give for `CC(C)(C)c1ccccc1S(=O)(=O)NCCc1c(CCOc2ccc(C(=O)O)cc2)c2cc(Cl)ccc2n1C(c1ccccc1)c1ccccc1` [Example 237, 4-{2-[1-benzhydryl-2-(2-{[(2-tert-butylphenyl)sulfonyl]amino}ethyl)-5-chloro-1H-indol-3-yl]ethoxy}benzoic acid] here?
A: 200 nM

Q: How did the IC50 turn out when `O=C(O)c1ccc(CCCc2c(CCNS(=O)(=O)c3ccc(C(F)(F)F)cc3)n(C(c3ccccc3)c3ccccc3)c3ccc(Cl)cc23)cc1` [Example 228] was run?
A: 400 nM

Q: How did the IC50 turn out when `COc1ccc(S(=O)(=O)NCCc2c(CCOc3ccc(C(=O)O)cc3)c3cc(Cl)ccc3n2C(c2ccccc2)c2ccccc2)c([N+](=O)[O-])c1` [Example 197, 4-(2-{1-Benzhydryl-5-chloro-2-[2-(4-methoxy-2-nitro-benzenesulfonylamino)-ethyl]-1H-indol-3-yl}-ethoxy)-benzoic acid] was run?
A: 400 nM

Q: How did the IC50 turn out when `CC1CCN(CCS(=O)(=O)NCCc2c(CCOc3ccc(C(=O)O)cc3)c3cc(Cl)ccc3n2C(c2ccccc2)c2ccccc2)CC1` [Example 245, 4-(2-{1-benzhydryl-5-chloro-2-[2-({[2-(4-methylpiperidin-1-yl)ethyl]sulfonyl}amino)ethyl]-1H-indol-3-yl}ethoxy)benzoic acid] was run?
A: 900 nM

Q: How did the IC50 turn out when `O=C(O)c1ccc(S(=O)(=O)CCc2c(CCNS(=O)(=O)c3ccccc3Cl)n(C(c3ccccc3)c3ccccc3)c3ccc(Cl)cc23)cc1` [Example 256, 4-({2-[1-benzhydryl-5-chloro-2-(2-{[(2-chlorophenyl)sulfonyl]amino}ethyl)-1H-indol-3-yl]ethyl}sulfonyl)benzoic acid] was run?
A: 600 nM

Q: `Cc1cc(C)c(S(=O)(=O)NCCc2c(CCOc3ccc(C(=O)O)cc3)c3cc(Cl)ccc3n2C(c2ccccc2)c2ccccc2)c(C)c1` [Example 266, 4-[2-(1-benzhydryl-5-chloro-2-{2-[(mesitylsulfonyl)amino]ethyl}-1H-indol-3-yl)ethoxy]benzoic acid] was tested. Which IC50 did it give?
A: 160 nM

Q: Which IC50 does the source give for `O=C(O)c1ccc(CCCc2c(CCNS(=O)(=O)c3ccccc3C(F)(F)F)n(C(c3ccccc3)c3ccccc3)c3ccc(Cl)cc23)cc1` [Example 208] here?
A: 240 nM

Q: How did the IC50 turn out when `O=C(O)c1ccc(OCCc2c(CCNS(=O)(=O)c3c(F)cccc3F)n(C(c3ccccc3)c3ccccc3)c3ccc(Cl)cc23)cc1` [Example 225, 4-{2-[1-benzhydryl-5-chloro-2-(2-{[(2,6-difluorophenyl)sulfonyl]amino}ethyl)-1H-indol-3-yl]ethoxy}benzoic acid] was run?
A: 400 nM

Q: For `O=C(O)c1ccc(OCCc2c(CCNS(=O)(=O)c3ccccc3OCc3ccccc3)n(C(c3ccccc3)c3ccccc3)c3ccc(Cl)cc23)cc1` [Example 184, 4-(2-{1-Benzhydryl-2-[2-(2-benzyloxy-benzenesulfonylamino)-ethyl]-5-chloro-1H-indol-3-yl}-ethoxy)benzoic acid], which IC50 is on record?
A: 350 nM

Q: With `O=C(O)c1ccc(CCCc2c(CCNS(=O)(=O)c3ccsc3)n(C(c3ccccc3)c3ccccc3)c3ccc(Cl)cc23)cc1` [Example 180, 4-[3-(1-benzhydryl-5-chloro-2-{2-[(thien-3-ylsulfonyl)amino]ethyl}-1H-indol-3-yl)propyl]benzoic acid] as the molecule, how does the IC50 read?
A: 230 nM
